Reference: the supplement of paper PMC10307832

How the values were obtained:
Assay in all cases: relative viability (nuclei count vs DMSO), 5 days (fraction); higher = more cells survive
17-AAG + Lapatinib = compound: C=CCNC1=C2C[C@@H](C)C[C@H](OC)[C@H](O)[C@@H](C)/C=C(\C)[C@H](OC(N)=O)[C@@H](OC)/C=C\C=C(/C)C(=O)NC(=CC1=O)C2=O [17-AAG] + CS(=O)(=O)CCNCc1ccc(-c2ccc3ncnc(Nc4ccc(OCc5cccc(F)c5)c(Cl)c4)c3c2)o1 [Lapatinib] (partner 2 µM)
Method in brief: (§1)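 Relative viability equals treated-well nuclei counts divided by vehicle-well nuclei counts. Counts came from 4× images of lung cancer cell lines grown in 1536-well plates for 5 days after pin-tool dosing on the day after seeding. Dosing used one drug alone or a fixed anchor-drug dose plus five library-drug doses (not always all listed) in √10 steps, and values are medians of duplicate plates.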

17-AAG + OSI-027 = compound: C=CCNC1=C2C[C@@H](C)C[C@H](OC)[C@H](O)[C@@H](C)/C=C(\C)[C@H](OC(N)=O)[C@@H](OC)/C=C\C=C(/C)C(=O)NC(=CC1=O)C2=O [17-AAG] + COc1cccc2cc(-c3nc([C@H]4CC[C@H](C(=O)O)CC4)n4ncnc(N)c34)[nH]c12 [OSI-027] (partner 0.5 µM)
Method in brief: as §1

17-AAG + Linsitinib = compound: C=CCNC1=C2C[C@@H](C)C[C@H](OC)[C@H](O)[C@@H](C)/C=C(\C)[C@H](OC(N)=O)[C@@H](OC)/C=C\C=C(/C)C(=O)NC(=CC1=O)C2=O [17-AAG] + C[C@]1(O)C[C@@H](c2nc(-c3ccc4ccc(-c5ccccc5)nc4c3)c3c(N)nccn32)C1 [Linsitinib] (partner 1 µM)
Method in brief: as §1

17-AAG + Luminespib = compound: C=CCNC1=C2C[C@@H](C)C[C@H](OC)[C@H](O)[C@@H](C)/C=C(\C)[C@H](OC(N)=O)[C@@H](OC)/C=C\C=C(/C)C(=O)NC(=CC1=O)C2=O [17-AAG] + CCNC(=O)c1noc(-c2cc(C(C)C)c(O)cc2O)c1-c1ccc(CN2CCOCC2)cc1 [Luminespib] (partner 0.01 µM)
Method in brief: as §1

| Cell Line | relative viability (17-AAG + Lapatinib; first compound 0.00128 µM) | relative viability (17-AAG + Lapatinib; first compound 0.004048 µM) | relative viability (17-AAG + Lapatinib; first compound 0.0128 µM) | relative viability (17-AAG + Lapatinib; first compound 0.04048 µM) | relative viability (17-AAG + Lapatinib; first compound 0.128 µM) | relative viability (17-AAG + OSI-027; first compound 0.00128 µM) | relative viability (17-AAG + OSI-027; first compound 0.004048 µM) | relative viability (17-AAG + OSI-027; first compound 0.0128 µM) | relative viability (17-AAG + OSI-027; first compound 0.04048 µM) | relative viability (17-AAG + OSI-027; first compound 0.128 µM) | relative viability (17-AAG + Linsitinib; first compound 0.00128 µM) | relative viability (17-AAG + Linsitinib; first compound 0.004048 µM) | relative viability (17-AAG + Linsitinib; first compound 0.0128 µM) | relative viability (17-AAG + Linsitinib; first compound 0.04048 µM) | relative viability (17-AAG + Linsitinib; first compound 0.128 µM) | relative viability (17-AAG + Luminespib; first compound 0.00128 µM) | relative viability (17-AAG + Luminespib; first compound 0.004048 µM) | relative viability (17-AAG + Luminespib; first compound 0.0128 µM) | relative viability (17-AAG + Luminespib; first compound 0.04048 µM) | relative viability (17-AAG + Luminespib; first compound 0.128 µM) |
| --- | --- | --- | --- | --- | --- | --- | --- | --- | --- | --- | --- | --- | --- | --- | --- | --- | --- | --- | --- | --- |
| NCI-H1915 | 0.883 | 1.06 | 0.894 | 0.571 | 0.0701 | 0.606 | 0.605 | 0.482 | 0.088 | 0.0931 | 1.05 | 1.08 | 1.14 | 1.07 | 0.83 | 0.682 | 0.659 | 0.548 | 0.418 | 0.0942 |
| NCI-H647 | 1.15 | 0.386 | 0.0807 | 0.0919 | 0.0634 | 0.585 | 0.553 | 0.187 | 0.0899 | 0.0977 | 1.16 | 0.596 | 0.18 | 0.118 | 0.074 | 0.128 | 0.122 | 0.098 | 0.109 | 0.0989 |
| NCI-H2009 | 1.16 | 0.954 | 0.816 | 0.424 | 0.0895 | 0.635 | 0.654 | 0.618 | 0.376 | 0.0937 | 1.14 | 1.2 | 1.01 | 0.775 | 0.328 | 0.983 | 0.983 | 0.871 | 0.354 | 0.0842 |
| NCI-H2126 | 0.731 | 0.784 | 0.775 | 0.53 | 0.276 | 0.778 | 0.758 | 0.479 | 0.231 | 0.291 | 0.753 | 0.688 | 0.776 | 0.692 | 0.373 | 0.681 | 0.499 | 0.261 | 0.243 | 0.292 |
| LXF-289 | 0.907 | 0.874 | 0.694 | 0.449 | 0.152 | 0.823 | 0.779 | 0.53 | 0.104 | 0.0657 | 0.964 | 0.954 | 0.924 | 0.52 | 0.179 | 0.628 | 0.556 | 0.377 | 0.121 | 0.0993 |
| NCI-H1563 | 0.878 | 0.729 | 0.567 | 0.606 | 0.618 | 0.755 | 0.647 | 0.564 | 0.509 | 0.481 | 1.17 | 0.952 | 0.668 | 0.623 | 0.622 | 0.476 | 0.497 | 0.537 | 0.525 | 0.49 |
| HCC-44 | 1.06 | 0.986 | 0.998 | 0.287 | 0.125 | 0.54 | 0.429 | 0.229 | 0.141 | 0.116 | 0.643 | 0.709 | 0.686 | 0.662 | 0.119 | 0.758 | 0.663 | 0.228 | 0.217 | 0.172 |
| PC-3 [JPC-3] | 0.486 | 0.442 | 0.444 | – | 0.472 | 0.729 | 0.787 | 0.851 | – | 0.653 | 1 | 0.883 | 0.959 | – | 0.911 | 0.766 | 0.723 | 0.71 | – | 0.538 |
| HOP-62 | 0.875 | 1.03 | 0.634 | 0.12 | 0.0921 | 0.879 | 0.806 | 0.6 | 0.44 | 0.112 | 0.783 | 0.917 | 1.08 | 0.819 | 0.455 | 0.928 | 0.806 | 0.919 | 0.36 | 0.136 |
| NCI-H358 | 0.504 | 0.324 | 0.162 | 0.137 | 0.121 | 0.768 | 0.41 | 0.0521 | 0.0586 | 0.0417 | 0.817 | 0.892 | 0.148 | 0.161 | 0.131 | 0.273 | 0.235 | 0.121 | 0.0893 | 0.0737 |
| SK-MES-1 | 0.55 | 0.559 | 0.405 | 0.188 | 0.145 | 0.597 | 0.426 | 0.127 | 0.136 | 0.134 | 1 | 1.01 | 0.598 | 0.282 | 0.165 | 0.633 | 0.327 | 0.181 | 0.166 | 0.157 |
| NCI-H1666 | 0.682 | 0.595 | 0.234 | 0.261 | 0.219 | 0.875 | 0.782 | 0.52 | 0.395 | 0.335 | 0.764 | 0.554 | 0.27 | 0.253 | 0.224 | 1 | 0.86 | 0.474 | 0.296 | 0.342 |
| NCI-H1355 | 0.97 | 0.979 | 0.776 | 0.223 | 0.159 | 0.44 | 0.467 | 0.272 | 0.185 | 0.166 | 0.946 | 0.747 | 0.776 | 0.725 | 0.286 | 0.649 | 0.685 | 0.457 | 0.337 | 0.18 |
| HCC-827 | 0.225 | 0.216 | 0.193 | – | 0.259 | 0.826 | 0.785 | 0.728 | – | 0.394 | 0.902 | 0.958 | 0.946 | – | 0.855 | 0.579 | 0.706 | 0.652 | – | 0.291 |
